One test deals with HCT-116. The experiment in a line: Cytotoxicity against human HCT116 cells after 72 hrs by MTS/PMS assay. It is filed as functional, cell-based. The settings on record: HCT-116, 72 h.
Test [1] in a line: Inhibition of chymotrypsin like activity of yeast 20S proteasome beta 5 subunit after 30 mins by fluorescence assay. Also on record: species or system Saccharomyces cerevisiae.

Molecules are shown by their SMILES. pIC50: −log10 of the molar value.

The record followed here is ChEMBL document CHEMBL1154272, “Function-oriented biosynthesis of beta-lactone proteasome inhibitors in Salinispora tropica” (J Med Chem, 2009).

As to `C[C@@]12OC(=O)[C@]1([C@@H](O)C1CCCC1)NC(=O)[C@@H]2CCCl`, the values for the pIC50 (with HCT-116; in test [1]) were 7.27 and 8.03, respectively.

In the case of `C[C@@]12OC(=O)[C@]1([C@@H](O)C1CCCCC1)NC(=O)[C@@H]2CCCl`, the pIC50 is 6.75 in the test with HCT-116 and 7.56 in test [1].

With `CC(C)[C@H](O)[C@@]12NC(=O)[C@H](CCCl)[C@]1(C)OC2=O` [ANTIPROTEALIDE], the results for the pIC50 (in the test on HCT-116; in test [1]) were 6.11 and 7.00, respectively.

On to `C[C@@]12OC(=O)[C@]1([C@@H](O)[C@@H]1C=CCCC1)NC(=O)[C@@H]2CCCl` [MARIZOMIB], for which the pIC50 in the test on HCT-116 is 7.80; in test [1], 8.72.

Take `C[C@@]12OC(=O)[C@]1([C@@H](O)C1CCC1)NC(=O)[C@@H]2CCCl` [SALINOSPORAMIDE X3]: the pIC50 with HCT-116 was 6.73; in test [1], 7.03.

In the case of `C[C@@]12OC(=O)[C@]1([C@@H](O)c1ccccc1)NC(=O)[C@@H]2CCCl` [SALINOSPORAMIDE X4], the pIC50 with HCT-116 is 5.16; in test [1], 5.99.

Turning to `CCC[C@H](O)[C@@]12NC(=O)[C@H](CCCl)[C@]1(C)OC2=O` [SALINOSPORAMIDE X5], the pIC50 in the test on HCT-116 is 5.96; in test [1], 6.61.

For `CCCC[C@H](O)[C@@]12NC(=O)[C@H](CCCl)[C@]1(C)OC2=O` [SALINOSPORAMIDE X6], the pIC50 with HCT-116 was 5.96; in test [1] it was 6.88.

On to `C[C@@]12OC(=O)[C@]1([C@@H](O)[C@@H]1C=CCC1)NC(=O)[C@@H]2CCCl` [SALINOSPORAMIDE X7], for which the negative-log IC50 (pIC50) is 8.23 in the test with HCT-116 and 8.66 in test [1].

By pIC50 is commonly meant −log10 of the IC50, conventionally taken in molar units. Lower therefore signals a high IC50.
